Experimental data from patent US11524940B1, “Inhibitors of cysteine proteases and methods of use thereof” (priority 2020, dated 2022).
Like-named read-outs stand apart in the source and are kept apart here.

Assays:
[1] = target: SARS-CoV2 Mpro (Severe acute respiratory syndrome coronavirus 2 (2019-nCoV) (SARS-CoV-2), UniProt P0DTD1); experiment: COVID-19 (SARS-CoV2) Mpro enzymatic assay; type: biochemical; details: 25 nM Mpro, 25 μM substrate
[2] = target: 229E Mpro (Human coronavirus 229E (HCoV-229E), UniProt P0C6X1); experiment: 229E Mpro activity; type: biochemical
229E Mpro, sequence (P0C6X1 2966-3267 limits assumed): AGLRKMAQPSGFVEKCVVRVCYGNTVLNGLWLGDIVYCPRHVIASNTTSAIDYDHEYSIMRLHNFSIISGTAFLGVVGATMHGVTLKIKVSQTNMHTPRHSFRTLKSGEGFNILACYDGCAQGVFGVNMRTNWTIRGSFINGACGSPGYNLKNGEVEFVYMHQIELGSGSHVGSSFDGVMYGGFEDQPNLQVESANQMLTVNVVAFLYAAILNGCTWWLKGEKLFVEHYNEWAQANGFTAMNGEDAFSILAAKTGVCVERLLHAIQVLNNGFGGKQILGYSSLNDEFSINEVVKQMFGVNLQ
Protocol: Compounds are assayed using standard methods to assess compound activity and IC50. […] The assay buffer contains 20 mM of Tris-HCl (pH 7.3), 100 mM of NaCl, 1 mM of EDTA, 5mM of TCEP and 0.1% BSA.

SMILES	IC50 [1]	EC50 ([2]; read-out: 229E Mpro EC50)	EC50 ([2]; 229E Mpro EC50)
COc1cccc2[nH]c(C(=O)N3CC4(CCC4)CC3C(=O)N[C@H](C#N)C[C@@H]3CCCNC3=O)cc12 (single isomer, unassigned) [719A (Isomer 1)]	10 to 30 µM	10 to 30 µM	
COc1ccc(Cl)c2[nH]c(C(=O)N3CC4(CCCCC4)CC3C(=O)N[C@H](C#N)C[C@@H]3CCNC3=O)cc12 (single isomer, unassigned) [882 (Isomer 1)]	< 2 µM	< 2 µM	
COc1cccc2[nH]c(C(=O)N3CC4(CCCCC4)CC3C(=O)N[C@H](C#N)CC3CCC(C)(C)NC3=O)cc12 (single isomer, unassigned) [1111 (Isomer 1)]	< 2 µM	2 to 10 µM	
N#C[C@H](C[C@@H]1CCCNC1=O)NC(=O)C1CC2(CN1C(=O)c1cc3cccc(Cl)c3[nH]1)CC(F)(F)C2 (single isomer, unassigned) [743 (Isomer 1)]	> 30 µM		> 30 µM
COc1cccc2[nH]c(C(=O)N3NCCC[C@H]3C(=O)N[C@H](C#N)C[C@@H]3CCNC3=O)cc12 [Compound 199]	10 to 30 µM	> 30 µM	
COc1ccc(Cl)c2[nH]c(C(=O)N3CC4(CCCCC4)CC3C(=O)NC(C#N)C[C@@H]3CCCNC3=O)cc12 (single isomer, unassigned) [902 (Isomer 2)]	2 to 10 µM	10 to 30 µM	
N#C[C@H](C[C@@H]1CCCNC1=O)NC(=O)C1CC2(CCC2)CN1C(=O)c1cc2ccc(Cl)cc2[nH]1 (single isomer, unassigned) [791 (Isomer 2)]	< 2 µM	< 2 µM	
N#C[C@H](C[C@@H]1CCCNC1=O)NC(=O)C1CC2(CCC2)CN1C(=O)c1cc2c(Cl)cccc2[nH]1 (single isomer, unassigned) [803 (Isomer 3)]	< 2 µM	< 2 µM	
COc1cccc2[nH]c(C(=O)N3CC4(CCCCC4)CC3C(=O)N[C@H](C#N)CC3CCC(C)(C)NC3=O)cc12 (single isomer, unassigned) [1111 (Isomer 3)]	< 2 µM	2 to 10 µM	
COc1ccc2[nH]c(C(=O)N3CC4(CCC4)CC3C(=O)N[C@H](C#N)C[C@@H]3CCNC3=O)cc2c1Cl (single isomer, unassigned) [886 (Isomer 2)]	< 2 µM	< 2 µM	
CC1(C)CC(C[C@@H](C#N)NC(=O)C2CC3(CCCCC3)CN2C(=O)c2cc3cccc(Cl)c3[nH]2)C(=O)N1 (single isomer, unassigned) [930 (Isomer 2)]	10 to 30 µM	> 30 µM	
COc1cccc2[nH]c(C(=O)N3CC4(CCC(F)(F)CC4)CC3C(=O)N[C@H](C#N)C[C@@H]3CCCNC3=O)cc12 (single isomer, unassigned) [982 (Isomer 1)]	< 2 µM	< 2 µM	
COc1ccc(Cl)c2[nH]c(C(=O)N3CC4(CCCCC4)CC3C(=O)NC(C#N)C[C@@H]3CCCNC3=O)cc12 (single isomer, unassigned) [902 (Isomer 1)]	< 2 µM	< 2 µM	
COCCOCCOC(=O)N[C@@H](CC1CC1)C(=O)N[C@H](C#N)C[C@@H]1CCNC1=O [Compound 671, 2-(2-methoxyethoxy)ethyl N-[(1S)-2-[[(1S)-1-cyano-2-[(3S)-2-oxopyrrolidin-3-yl]ethyl]amino]-1-(cyclopropylmethyl)-2-oxo-ethyl]carbamate]	2 to 10 µM	10 to 30 µM	
COc1ccc(Cl)c2[nH]c(C(=O)N3CC4(CCCCC4)CC3C(=O)NC(C#N)C[C@@H]3CCCNC3=O)cc12 (single isomer, unassigned) [902 (Isomer 3)]	< 2 µM	< 2 µM	
N#C[C@H](C[C@@H]1CCCNC1=O)NC(=O)C1CC2(CCCCC2)CN1C(=O)c1cc2c(Cl)cccc2[nH]1 (single isomer, unassigned) [801 (Isomer 2)]	10 to 30 µM	10 to 30 µM	
COc1ccc2[nH]c(C(=O)N3CC4(CCC4)CC3C(=O)N[C@H](C#N)C[C@@H]3CCNC3=O)cc2c1Cl (single isomer, unassigned) [886 (Isomer 1)]	> 30 µM	> 30 µM	
COc1cc(Cl)cc2[nH]c(C(=O)N3CC4(CCCCC4)CC3C(=O)N[C@H](C#N)C[C@@H]3CCCNC3=O)cc12 (single isomer, unassigned) [908 (Isomer 2)]	2 to 10 µM	2 to 10 µM	
N#C[C@H](C[C@@H]1CCCNC1=O)NC(=O)C1CC2(CCC2)CN1C(=O)c1cc2ccc(Cl)cc2[nH]1 (single isomer, unassigned) [791 (Isomer 1)]	> 30 µM	> 30 µM	

SMILES	IC50 [1]	EC50 ([2]; read-out: 229E Mpro EC50)	EC50 ([2]; 229E Mpro EC50)
COc1cc(Cl)c2[nH]c(C(=O)N3CC4(CCCCC4)CC3C(=O)N[C@H](C#N)C[C@@H]3CCCNC3=O)cc2c1 (single isomer, unassigned) [1147A (Isomer 2)]	2 to 10 µM	10 to 30 µM	
COc1cccc2[nH]c(C(=O)N[C@@H](CC3CC3)C(=O)N[C@@]3(C#N)C[C@@H]4CC[C@H]3[C@@H]3C(=O)NC(=O)[C@H]43)cc12 (single isomer, unassigned) [489 (Isomer 2)]	> 30 µM	> 30 µM	
N#C[C@H](C[C@@H]1CCNC1=O)NC(=O)C1CC2(CCC2)CN1C(=O)c1cc2ccc(Cl)cc2[nH]1 (single isomer, unassigned) [990 (Isomer 2)]	< 2 µM	< 2 µM	
N#C[C@H](C[C@@H]1CCCNC1=O)NC(=O)[C@H](CC1CC1)NC(=O)c1ccn[nH]1 [Compound 872, N-((S)-1-(((S)-1-cyano-2-((S)-2-oxopiperidin-3-yl)ethyl)amino)-3-cyclopropyl-1-oxopropan-2-yl)-1H-pyrazole-5-carboxamide]	2 to 10 µM	2 to 10 µM	
N#C[C@H](C[C@@H]1CCCNC1=O)NC(=O)C1CC2(CCC2)CN1C(=O)c1cc2c(Cl)cccc2[nH]1 (single isomer, unassigned) [803 (Isomer 4)]	2 to 10 µM	< 2 µM	
CC1(C)CC(C[C@@H](C#N)NC(=O)C2CC3(CCCCC3)CN2C(=O)c2cc3cccc(Cl)c3[nH]2)C(=O)N1 (single isomer, unassigned) [930 (Isomer 6)]	< 2 µM	< 2 µM	
COc1cccc2[nH]c(C(=O)N3Cc4ccccc4C3C(=O)N[C@H](C#N)C[C@@H]3CCNC3=O)cc12 (single isomer, unassigned) [429A (Isomer 1)]	10 to 30 µM	> 30 µM	
COc1cccc2[nH]c(C(=O)N[C@@H](Cc3cccnc3)C(=O)N[C@H](C#N)C[C@@H]3CCNC3=O)cc12 [Compound 191, N-[(1S)-2-[[(1S)-1-cyano-2-[(3S)-2-oxopyrrolidin-3-yl]ethyl]amino]-2-oxo-1-(3-pyridylmethyl)ethyl]-4-methoxy-1H-indole-2-carboxamide]	2 to 10 µM	> 30 µM	
COc1ccc(Cl)c2[nH]c(C(=O)N3CC4(CCC4)CC3C(=O)N[C@H](C#N)C[C@@H]3CCNC3=O)cc12 (single isomer, unassigned) [992 (Isomer 1)]	< 2 µM	< 2 µM	
COc1cc(Cl)c2[nH]c(C(=O)N3CC4(CCCCC4)CC3C(=O)N[C@H](C#N)C[C@@H]3CCCNC3=O)cc2c1 (single isomer, unassigned) [1147A (Isomer 1)]	< 2 µM	< 2 µM	
COc1cccc2[nH]c(C(=O)N[C@@H](CC3CC3(F)F)C(=O)N[C@H](C#N)C[C@@H]3CCCNC3=O)cc12 (single isomer, unassigned) [1059 (Isomer 2)]	10 to 30 µM	10 to 30 µM	
N#C[C@H](C[C@@H]1CCNC1=O)NC(=O)C1CC2(CCC2)CN1C(=O)c1cc2cccc(Cl)c2[nH]1 (single isomer, unassigned) [988 (Isomer 2)]	< 2 µM	< 2 µM	
N#C[C@H](C[C@@H]1CCCNC1=O)NC(=O)C1CC2(CCCCC2)CN1C(=O)c1cc2c(Cl)cccc2[nH]1 (single isomer, unassigned) [801 (Isomer 1)]	< 2 µM	< 2 µM	
N#C[C@H](C[C@@H]1CCCNC1=O)NC(=O)C1CC2(CCCCC2)CN1C(=O)c1cc2cccc(Cl)c2[nH]1 (single isomer, unassigned) [731 (Isomer 2)]	2 to 10 µM	10 to 30 µM	
N#C[C@H](C[C@@H]1CCNC1=O)NC(=O)C1CC2(CCC2)CN1C(=O)c1cc2ccc(Cl)c(Cl)c2[nH]1 (single isomer, unassigned) [814 (Isomer 1)]	> 30 µM	> 30 µM	
COc1cc(Cl)cc2[nH]c(C(=O)N3CC4(CCCCC4)CC3C(=O)N[C@H](C#N)C[C@@H]3CCCNC3=O)cc12 (single isomer, unassigned) [908 (Isomer 1)]	< 2 µM	< 2 µM	
N#C[C@H](C[C@@H]1CCCNC1=O)NC(=O)C1CC2(CCCCC2)CN1C(=O)c1cc2ccc(Cl)cc2[nH]1 (single isomer, unassigned) [733 (Isomer 2)]	2 to 10 µM	2 to 10 µM	
COc1cccc2[nH]c(C(=O)N3CC4(CCC(F)(F)CC4)CC3C(=O)N[C@H](C#N)C[C@@H]3CCCNC3=O)cc12 (single isomer, unassigned) [982 (Isomer 2)]	> 30 µM	> 30 µM	
